Test results taken from ChEMBL document CHEMBL1156955 (Bioorg Med Chem Lett, 2010).

How the values were obtained:
[1] = Volume of distribution in mouse at 5 mg/kg, iv; type: ADME, organism-based; parameters: dose 5 mg/kg, route intravenous; settings: in vivo
[2] = AUC (0 to infinity) in mouse at 5 mg/kg, iv; type: ADME, organism-based; parameters: time infinity, dose 5 mg/kg, route intravenous; settings: plasma
[3] = Drug level in plasma of nude mouse bearing human MDA-MB-361 cells at 25 mg/kg, iv after 8 hrs; type: ADME, organism-based; parameters: dose 25 mg/kg, route intravenous; settings: read-out: Drug uptake
[4] = Drug level in tumor of human MDA-MB-361 cells xenografted nude mouse at 25 mg/kg, iv after 8 hrs; type: ADME, organism-based, Neoplasm; parameters: dose 25 mg/kg, route intravenous; settings: read-out: Drug uptake

## CC(C)N1CCN(C(=O)c2ccc(NC(=O)Nc3ccc(-c4nc(C5CCOCC5)nc(N5C6CCC5COC6)n4)cc3)cc2)CC1
[1]
  Vd: 1.3 L/kg
[2]
  AUC(0-inf): 16700 ng·h/mL
[3]
  concentration at 8 h: 2160 ng/mL
[4]
  concentration at 8 h: 2470 ng/mL
